molecular target: mGluR5 receptor (Sus scrofa, UniProt I3LUI7); test: Affinity for the mGluR5 receptor: inhibition of 3[H]-MPEP binding in pig brain homogenate; details: 10 μM compound, 5 nM 3[H]-MPEP, read-out: mGluR5 receptor inhibition of ^3[H]-MPEP binding [10 μM] in % at a concentration of the example compounds of 10 μM
Protocol: 1. Method for Determining Affinity for the mGluR5 Receptor
Pig brain homogenate is produced by homogenisation (Polytron Pt 3000, Kinematica AG, 10,000 revolutions per minute for 90 seconds) of pig brain hemispheres without medulla, cerebellum and pons in a buffer of pH 8.0 (30 mM Hepes, Sigma, order number H3375+1 tablet Complete Roche Diagnostics, order number 1836145 made up to 100 ml) in a ratio of 1:20 (brain weight/volume) and differential centrifugation at 900×g and 40,000×g. 450 μg of protein from brain homogenate is incubated in each case in 250 μl incubation batches in 96-well microtitre plates with 5 nM 3[H]-MPEP (Tocris, order number R1212) (MPEP=2-methyl-6-[…]) and the compounds to be investigated (10 μM in the test) in the buffer (as above) at room temperature for 60 minutes.
The batches are then filtered with the assistance of a Brandel Cell Harvester (Brandel, Grade Robotic 9600) on Unifilter plates with glass filter mats (Perkin Elmer, order number 6005177) and then washed 3 times with buffer (as above) using 250 μl per sample. The filter plates are then dried for 60 minutes at 55° C. Then 30 μl of Ultima Gold™ scintillating material (Packard BioScience, order number 6013159) is added per well and after 3 hours the samples are measured using the β counter (Microbeta, Perkin Elmer). Nonspecific binding is determined by the addition of 10 μM MPEP (Tocris, order number 1212).

Chain of mGluR5 receptor (I3LUI7 19-1212): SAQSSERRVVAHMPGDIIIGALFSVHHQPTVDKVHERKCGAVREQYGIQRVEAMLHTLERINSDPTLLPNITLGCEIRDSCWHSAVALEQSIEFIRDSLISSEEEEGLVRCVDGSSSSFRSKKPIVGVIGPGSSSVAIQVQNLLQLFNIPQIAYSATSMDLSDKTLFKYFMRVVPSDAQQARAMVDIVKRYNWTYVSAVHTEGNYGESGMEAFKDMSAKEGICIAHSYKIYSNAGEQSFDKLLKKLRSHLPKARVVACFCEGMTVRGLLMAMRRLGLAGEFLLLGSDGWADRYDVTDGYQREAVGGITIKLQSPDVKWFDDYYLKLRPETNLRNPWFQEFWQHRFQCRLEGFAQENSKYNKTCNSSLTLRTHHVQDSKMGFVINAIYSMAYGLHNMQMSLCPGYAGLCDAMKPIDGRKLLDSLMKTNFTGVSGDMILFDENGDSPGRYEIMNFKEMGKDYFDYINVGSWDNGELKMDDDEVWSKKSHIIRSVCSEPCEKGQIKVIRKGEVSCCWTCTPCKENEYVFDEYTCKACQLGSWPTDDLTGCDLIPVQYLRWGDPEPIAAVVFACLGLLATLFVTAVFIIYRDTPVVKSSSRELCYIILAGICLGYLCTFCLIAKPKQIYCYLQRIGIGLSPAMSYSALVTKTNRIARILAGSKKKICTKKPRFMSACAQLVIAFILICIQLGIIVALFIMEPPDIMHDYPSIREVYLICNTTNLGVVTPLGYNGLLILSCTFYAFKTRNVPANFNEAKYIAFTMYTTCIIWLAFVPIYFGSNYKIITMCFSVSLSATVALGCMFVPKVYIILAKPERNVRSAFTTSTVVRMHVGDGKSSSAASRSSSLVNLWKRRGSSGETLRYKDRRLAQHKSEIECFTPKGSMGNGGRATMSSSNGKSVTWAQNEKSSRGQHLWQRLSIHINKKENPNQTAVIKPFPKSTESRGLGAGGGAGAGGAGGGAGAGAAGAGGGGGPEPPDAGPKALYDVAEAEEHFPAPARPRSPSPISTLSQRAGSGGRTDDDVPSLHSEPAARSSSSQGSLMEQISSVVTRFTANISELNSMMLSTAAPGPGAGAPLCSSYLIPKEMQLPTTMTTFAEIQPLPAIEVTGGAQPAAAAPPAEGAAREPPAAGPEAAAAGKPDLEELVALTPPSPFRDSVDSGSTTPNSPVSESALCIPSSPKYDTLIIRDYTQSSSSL

| inhibition at 10 µM [%] | Compound |
| --- | --- |
| 98 | COc1ccc(CNc2c(-c3ccc(C#Cc4ccccc4)s3)nc3nc(C)ccn23)cc1 [Example 34, (4-methoxy-benzyl)-[7-methyl-2-(5-phenylethynyl-thiophen-2-yl)-imidazo[1,2-a]pyrimidin-3-yl]-amine] |
| 95 | Cc1cccn2c(NC(C)c3ccccc3)c(-c3ccc(C#Cc4ccccc4)s3)nc12 (stereo not drawn) [Example 35, [8-methyl-2-(5-phenylethynyl-thiophen-2-yl)-imidazo[1,2-a]pyridin-3-yl]-(1-phenyl-ethyl)-amine] |
| 100 | Cc1ccn2c(NC(C)c3ccccc3)c(-c3ccc(C#Cc4ccccc4)s3)nc2n1 (stereo not drawn) [Example 36, [7-methyl-2-(5-phenylethynyl-thiophen-2-yl)-imidazo[1,2-a]pyrimidin-3-yl]-(1-phenyl-ethyl)-amine] |
| 85 | COc1ccccc1CNc1c(-c2ccc(C#Cc3ccccc3)s2)nc2cc(C)ccn12 [Example 37, (2-methoxy-benzyl)-[7-methyl-2-(5-phenylethynyl-thiophen-2-yl)-imidazo[1,2-a]pyridin-3-yl]-amine] |
| 87 | COc1ccccc1CNc1c(-c2ccc(C#Cc3ccccc3)s2)nc2ccccn12 [Example 38, (2-methoxy-benzyl)-[2-(5-phenylethynyl-thiophen-2-yl)-imidazo[1,2-a]pyridin-3-yl]-amine] |
| 72 | Clc1ccccc1CNc1c(-c2ccc(C#Cc3ccccc3)s2)nc2ccccn12 [Example 39, (2-chloro-benzyl)-[2-(5-phenylethynyl-thiophen-2-yl)-imidazo[1,2-a]pyridin-3-yl]-amine] |
| 87 | COc1ccccc1CNc1c(-c2ccc(C#Cc3ccccc3)s2)nc2nc(C)ccn12 [Example 40, (2-methoxy-benzyl)-[7-methyl-2-(5-phenylethynyl-thiophen-2-yl)-imidazo[1,2-a]pyrimidin-3-yl]-amine] |
| 73 | COc1cccc(Nc2c(-c3ccc(C#Cc4ccccc4)s3)nc3ccc(C)cn23)c1 [Example 41, (3-methoxy-phenyl)-[6-methyl-2-(5-phenylethynyl-thiophen-2-yl)-imidazo[1,2-a]pyridin-3-yl]-amine] |
| 93 | COc1cccc(Nc2c(-c3ccc(C#Cc4ccccc4)s3)nc3cc(C)cc(C)n23)c1 [Example 42, [5,7-dimethyl-2-(5-phenylethynyl-thiophen-2-yl)-imidazo[1,2-a]pyridin-3-yl]-(3-methoxy-phenyl)-amine] |
| 83 | COc1cccc(Nc2c(-c3ccc(C#Cc4ccccc4)s3)nc3cnccn23)c1 [Example 43, (3-methoxy-phenyl)-[2-(5-phenylethynyl-thiophen-2-yl)-imidazo[1,2-a]pyrazin-3-yl]-amine] |
| 75 | CCc1ccn2c(NCc3ccccc3OC)c(-c3ccc(C#Cc4ccccc4)s3)nc2c1 [Example 44, [7-ethyl-2-(5-phenylethynyl-thiophen-2-yl)-imidazo[1,2-a]pyridin-3-yl]-(2-methoxy-benzyl)-amine] |
| 93 | CCc1ccn2c(NCc3ccccc3Cl)c(-c3ccc(C#Cc4ccccc4)s3)nc2c1 [Example 45, (2-chloro-benzyl)-[7-ethyl-2-(5-phenylethynyl-thiophen-2-yl)-imidazo[1,2-a]pyridin-3-yl]-amine] |
| 76 | CC(C)(C)c1ccn2c(Nc3ccc(F)c(Cl)c3)c(-c3ccc(C#Cc4ccccc4)s3)nc2c1 [Example 46, [7-tert-butyl-2-(5-phenylethynyl-thiophen-2-yl)-imidazo[1,2-a]pyridin-3-yl]-(3-chloro-4-fluoro-phenyl)-amine] |
| 79 | COc1cccc(CNc2c(-c3ccc(C#Cc4ccccc4)s3)nc3nc(C)ccn23)c1 [Example 47, (3-methoxy-benzyl)-[7-methyl-2-(5-phenylethynyl-thiophen-2-yl)-imidazo[1,2-a]pyrimidin-3-yl]-amine] |
| 82 | CCc1ccn2c(Nc3ccccc3F)c(-c3ccc(C#Cc4ccccc4)s3)nc2c1 [Example 48, [7-ethyl-2-(5-phenylethynyl-thiophen-2-yl)-imidazo[1,2-a]pyridin-3-yl]-(2-fluoro-phenyl)-amine] |
| 85 | CC(C)(C)c1ccn2c(Nc3ccccc3F)c(-c3ccc(C#Cc4ccccc4)s3)nc2c1 [Example 49, [7-tert-butyl-2-(5-phenylethynyl-thiophen-2-yl)-imidazo[1,2-a]pyridin-3-yl]-(2-fluoro-phenyl)-amine] |
| 90 | Fc1ccc(Nc2c(-c3ccc(C#Cc4ccccc4)s3)nc3cc(CCCc4ccccc4)ccn23)c(F)c1 [Example 50, (2,4-difluoro-phenyl)-[2-(5-phenylethynyl-thiophen-2-yl)-7-(3-phenyl-propyl)-imidazo[1,2-a]pyridin-3-yl]-amine] |
| 89 | Cc1ccn2c(NCc3ccc(F)cc3)c(-c3ccc(C#Cc4ccccc4)s3)nc2c1 [Example 51, (4-fluoro-benzyl)-[7-methyl-2-(5-phenylethynyl-thiophen-2-yl)-imidazo[1,2-a]pyridin-3-yl]-amine] |
| 75 | Cc1cc(C)n2c(NCc3ccc(F)cc3)c(-c3ccc(C#Cc4ccccc4)s3)nc2c1 [Example 52, [5,7-dimethyl-2-(5-phenylethynyl-thiophen-2-yl)-imidazo[1,2-a]pyridin-3-yl]-(4-fluoro-benzyl)-amine] |
| 80 | CCc1ccn2c(NCc3cccc(C(F)(F)F)c3)c(-c3ccc(C#Cc4ccccc4)s3)nc2c1 [Example 53, [7-ethyl-2-(5-phenylethynyl-thiophen-2-yl)-imidazo[1,2-a]pyridin-3-yl]-(3-trifluoromethyl-benzyl)-amine] |
| 69 | CC(C)c1ccn2c(NCc3cccc(C(F)(F)F)c3)c(-c3ccc(C#Cc4ccccc4)s3)nc2c1 [Example 54, [7-isopropyl-2-(5-phenylethynyl-thiophen-2-yl)-imidazo[1,2-a]pyridin-3-yl]-(3-trifluoromethyl-benzyl)-amine] |
| 77 | CC(C)(C)Nc1c(-c2cc(C#Cc3ccccc3)cs2)nc2cnccn12 [Example 55, tert-butyl-[2-(4-phenylethynyl-thiophen-2-yl)-imidazo[1,2-a]pyrazin-3-yl]-amine] |
| 100 | CC(C)(C)CC(C)(C)Nc1c(-c2ccc(C#Cc3ccccc3)s2)nc2cnccn12 [Example 56, [2-(5-phenylethynyl-thiophen-2-yl)-imidazo[1,2-a]pyrazin-3-yl]-(1,1,3,3-tetramethyl-butyl)-amine] |
| 94 | CCCCNc1c(-c2cc(C#Cc3ccccc3)cs2)nc2cnccn12 [Example 57, butyl-[2-(4-phenylethynyl-thiophen-2-yl)-imidazo[1,2-a]pyrazin-3-yl]-amine] |
| 26 | CC(C)(C)CC(C)(C)Nc1c(-c2ccc(C#Cc3ccccc3)s2)nc2ccc(Cl)cn12 [Example 62, [6-chloro-2-(5-phenylethynyl-thiophen-2-yl)-imidazo[1,2-a]pyridin-3-yl]-(1,1,3,3-tetramethyl-butyl)-amine] |
| 65 | CC(C)(C)CC(C)(C)Nc1c(-c2ccc(C#Cc3ccccc3)s2)nc2c(Cl)cc(Cl)cn12 [Example 63, [6,8-dichloro-2-(5-phenylethynyl-thiophen-2-yl)-imidazo[1,2-a]pyridin-3-yl]-(1,1,3,3-tetramethyl-butyl)-amine] |

same assay, conditions: 3[H]-MPEP binding

| IC50 [nM] | Compound |
| --- | --- |
| 2070 | CC(C)(C)CC(C)(C)Nc1c(-c2ccc(C#Cc3ccccc3)s2)nc2ccccn12 [Example 59, [2-(5-phenylethynyl-thiophen-2-yl)-imidazo[1,2-a]pyridin-3-yl]-(1,1,3,3-tetramethyl-butyl)-amine] |
| 1200 | CC(C)(C)CC(C)(C)Nc1c(-c2ccc(C#Cc3cccnc3)s2)nc2cnccn12 [Example 60, [2-(5-Pyridin-3-ylethynyl-thiophen-2-yl)-imidazo[1,2-a]pyrazin-3-yl]-(1,1,3,3-tetramethyl-butyl)-amine] |
| 42.5 | CC(C)(C)CC(C)(C)Nc1c(-c2ccc(C#Cc3ccncc3)s2)nc2cnccn12 [Example 61, [2-(5-pyridin-4-ylethynyl-thiophen-2-yl)-imidazo[1,2-a]pyrazin-3-yl]-(1,1,3,3-tetramethyl-butyl)-amine] |
| 33 | CC(C)(C)CC(C)(C)Nc1c(-c2ccc(C#Cc3ccccn3)s2)nc2cnccn12 [Example 64, [2-(5-pyridin-2-ylethynyl-thiophen-2-yl)-imidazo[1,2-a]pyrazin-3-yl]-(1,1,3,3-tetramethyl-butyl)-amine] |
| 3840 | CN(C)c1c(-c2ccc(C#Cc3ccccc3)s2)nc2cnccn12 [Example 65, dimethyl-[2-(5-phenylethynyl-thiophen-2-yl)-imidazo[1,2-a]pyrazin-3-yl]-amine] |
| 3170 | CNc1c(-c2ccc(C#Cc3ccccc3)s2)nc2cnccn12 [Example 66, methyl-[2-(5-phenylethynyl-thiophen-2-yl)-imidazo[1,2-a]pyrazin-3-yl]-amine] |
| 3840 | CC(=O)Nc1c(-c2ccc(C#Cc3ccccc3)s2)nc2cnccn12 [Example 67, N-[2-(5-phenylethynyl-thiophen-2-yl)-imidazo[1,2-a]pyrazin-3-yl]-acetamide] |
